Laboratory results published in paper PMC9370166, “In Vitro and In Vivo Antibacterial Activity, Toxicity and Resistance Analysis of Pleuromutilin Derivative Z33 against Methicillin-Resistant Staphylococcus aureus” (Molecules, 2022).
≈ marks a conversion by molar mass, not a printed value. Read-outs that look alike come from different tables or passages of the source.

Tests used:
[1] = target: T1, CYP3A4 (Homo sapiens, UniProt P08684); experiment: CYP450 inhibition assay, human liver microsomes, testosterone probe; format: in vitro ADME
T1 construct: 40 µL of the human liver microsomal enzyme (final concentration is 0.5 g/L); tissue Research Institute for Liver Diseases Co., Ltd. (Shanghai, China); host or cells: human liver microsomes
T1 sequence (P08684 whole entry): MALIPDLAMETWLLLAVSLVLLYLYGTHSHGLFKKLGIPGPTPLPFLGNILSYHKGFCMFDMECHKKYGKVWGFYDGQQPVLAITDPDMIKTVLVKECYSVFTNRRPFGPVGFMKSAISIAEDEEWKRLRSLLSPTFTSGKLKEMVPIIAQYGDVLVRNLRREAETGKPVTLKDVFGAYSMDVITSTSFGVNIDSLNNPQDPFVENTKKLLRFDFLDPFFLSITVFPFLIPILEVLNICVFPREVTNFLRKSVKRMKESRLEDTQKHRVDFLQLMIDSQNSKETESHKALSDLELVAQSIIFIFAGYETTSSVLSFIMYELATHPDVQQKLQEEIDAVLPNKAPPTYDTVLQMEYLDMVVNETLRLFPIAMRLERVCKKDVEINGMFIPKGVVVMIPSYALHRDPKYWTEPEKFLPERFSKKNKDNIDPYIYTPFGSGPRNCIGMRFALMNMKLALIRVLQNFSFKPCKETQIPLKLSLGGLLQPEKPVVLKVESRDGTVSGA
Method: (§1) The inhibition effect of Z33 and tiamulin on the human liver microsomal enzyme was determined as described in the literature with some modifications. Experiments were performed in 96-well plates with a final incubation volume of 100 μL per well. 40 µL of the human liver microsomal enzyme (final concentration is 0.5 g/L), 20 µL of probe substrate (final concentration of testosterone and chlorzoxazone is 20 µmol/L), and 20 µL of test drug were mixed in each well. After preincubation at 37 °C for 5 min, the reactions were started by the addition of 20 μL of NADPH (final concentration is 1 mmol/L). Depending on the substrate, the chlorzoxazone and testosterone groups were incubated at 37 °C for 25 min and 10 min, respectively. The reaction was terminated by adding 100 µL of acetonitrile, and then the supernatant was centrifuged to analyse by LC-MS/MS.

[2] = target: T2, CYP2E1 (Homo sapiens, UniProt P05181); experiment: CYP450 inhibition assay, human liver microsomes, chlorzoxazone probe; format: in vitro ADME; conditions: human liver microsomes
T2 construct: 40 µL of the human liver microsomal enzyme (final concentration is 0.5 g/L); tissue Research Institute for Liver Diseases Co., Ltd. (Shanghai, China); host or cells: human liver microsomes
T2 sequence (P05181 whole entry): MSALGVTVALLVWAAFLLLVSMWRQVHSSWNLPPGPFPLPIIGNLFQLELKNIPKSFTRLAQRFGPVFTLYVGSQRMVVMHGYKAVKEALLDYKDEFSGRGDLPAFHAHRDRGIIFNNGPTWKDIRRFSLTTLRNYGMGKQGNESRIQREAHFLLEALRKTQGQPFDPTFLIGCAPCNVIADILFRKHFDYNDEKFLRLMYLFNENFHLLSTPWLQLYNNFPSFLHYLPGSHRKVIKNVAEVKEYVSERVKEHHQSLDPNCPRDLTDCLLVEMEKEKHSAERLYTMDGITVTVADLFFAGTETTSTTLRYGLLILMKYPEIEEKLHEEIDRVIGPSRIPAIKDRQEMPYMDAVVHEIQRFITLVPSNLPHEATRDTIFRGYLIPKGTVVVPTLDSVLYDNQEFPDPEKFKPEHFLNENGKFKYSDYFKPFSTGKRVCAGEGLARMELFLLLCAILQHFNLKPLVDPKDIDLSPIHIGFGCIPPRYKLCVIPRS
Method: as §1

[3] = system: MRSA ATCC 43300; experiment: Neutropenic mouse thigh infection model; format: in vivo, mice; conditions: 20 mg/kg intravenous
Method: The neutropenic mouse thigh infection model was used to determine the in vivo antibacterial activity of Z33 [23]. Briefly, female mice were rendered neutropenic (neutrophil count ≤ 100/mm^3) via intraperitoneal injection of cyclophosphamide on day 4 (150 mg/kg) and day 1 (100 mg/kg) before infection. MRSA ATCC 43300 cells were collected in the logarithmic phase and resuspended in 0.9% saline. The thigh infection model was established by injection of 100 μL of MRSA suspension (10^7 CFU/mL) into the posterior thighs of mice. After 2 h post-infection, mice were intravenously injected with tiamulin and Z33 at a dose of 20 mg/kg, and the untreated groups were administrated with an equal amount of saline. Mice were euthanized after treatment of 22 h, thigh tissue was aseptically collected, weighed, homogenized, and serially diluted in saline, respectively. CFU counts were determined by the flat colony counting method.

[4] = Cytotoxicity test (MTT assay); format: cell-based; conditions: mouse, RAW264.7 macrophages, RAW264.7, MTT, tested up to 20 μg/mL
Method: (§2) To assess the effects of tiamulin and Z33 on the viability of RAW264.7 macrophages, the MTT assay was performed according to previous reports. […] After discarding the MTT solution, DMSO (150 μL) was added to each well to dissolve all crystals. OD490nm was recorded using EnSight Multimode Plate Reader (PerkinElmer, […], USA).

[5] = system: RAW264.7 cells; experiment: Cytotoxicity test (MTT assay); format: cell-based; conditions: concentrations less than 5 μg/mL, 24 h, MTT
Method: as §2

[6] = system: four S. aureus strains; experiment: microbe, parasite or virus in culture; format: cell-based, Staphylococcus aureus
Method: To assess the propensity for the development of bacterial resistance, the ability of Z33 and tiamulin to induce resistance to four strains were tested, respectively. Serial passages at 37 °C were performed daily in BHI broth containing sub-MIC concentration (1/4 MIC) of Z33 and tiamulin. The MIC values were daily determined and recorded by the broth microdilution method. A duration of 13 passages was performed in every case.

[7] = system: S. aureus clinical strain 144; experiment: Determination of MPC (mutant prevention concentration); format: cell-based, Staphylococcus aureus
Method: (§3) The drug-resistant tendency suppression potential of Z33 and tiamulin was determined as described with minor modifications. In the test, for each S. aureus strain, 4 mL of overnight cultures were inoculated into 100 mL of fresh BHI broth and then incubated for 4.5 h at 37 °C with shaking (210 rpm). Cultures were centrifuged at 5000 r/min for 10 min. The supernatant was discarded and resuspended in the 4 mL of saline to achieve a bacterial density of ~3 × 10^10 CFU/mL. In total, 100 μL of each culture was spread onto MHA containing various concentrations of Z33 and tiamulin. […] Plates were incubated at 37 °C for a total of 72 h and recorded every 24 h for the appearance of colonies. MPC was defined as the lowest concentration with no growth of colonies on the agar plate. MPC was carried out in triplicate.

[8] = system: S. aureus ATCC 29213; experiment: as above; format: cell-based, Staphylococcus aureus
Method: as §3

[9] = system: MRSA ATCC 43300; experiment: as above; format: cell-based, Staphylococcus aureus
Method: as §3

[10] = system: S. aureus clinical strain AD3; experiment: as above; format: cell-based, Staphylococcus aureus
Method: as §3

[11] = system: S. aureus clinical strain 144; experiment: MIC and MBC determination (broth microdilution); format: cell-based; conditions: Staphylococcus aureus; for MIC: first value of cell; for MBC: second value of cell
Method: (§4) The MIC values of Z33 against MRSA ATCC 43300 and S. aureus clinical isolates were measured according to the broth microdilution guidelines provided by the Clinical and Laboratory Standards Institute (CLSI). S. aureus ATCC 29213 was used as the quality control strain, and the quality control range was referred to the CLSI. The MIC value is defined as the lowest concentration of the compounds with no visible growth of bacteria. The MIC assay was independently repeated three times.
(§5) The MBC values of antibacterial agents were measured after incubation at 37 °C for 24 h. Briefly, 100 µL of bacterial solution from the three wells behind the corresponding well of MIC was absorbed and spread on the Mueller–Hinton Agar (MHA). The MBC refers to the lowest concentration corresponding to the amount of colony-forming unit (CFU) ≤ 5 on the medium after 18~24 h of incubation at 37 °C.

[12] = system: S. aureus ATCC 29213; experiment: MIC and MBC determination (broth microdilution); format: cell-based; conditions: Staphylococcus aureus; for MIC: ATCC29213, first value of cell; for MBC: ATCC29213, second value of cell
Method: as §4, §5

[13] = system: MRSA ATCC 43300; experiment: MIC and MBC determination (broth microdilution); format: cell-based; conditions: Staphylococcus aureus; for MIC: first value of MIC/MBC cell; for MBC: second value of MIC/MBC cell
Method: as §4, §5

[14] = system: S. aureus clinical strain AD3; experiment: MIC and MBC determination (broth microdilution); format: cell-based; conditions: Staphylococcus aureus; for MIC: first value of cell; for MBC: second value of cell
Method: as §4, §5

Compound	MIC [11] [µg/mL]	MBC [11] [µg/mL]	MIC [12] [µg/mL]	MBC [12] [µg/mL]	MIC [13] [µg/mL]	MBC [13] [µg/mL]	MIC [14] [µg/mL]	MBC [14] [µg/mL]	other results
C=C[C@]1(C)C[C@@H](OC(=O)CSCCN(CC)CC)[C@]2(C)[C@H](C)CC[C@]3(CCC(=O)[C@H]32)[C@@H](C)[C@@H]1O [tiamulin, reference compound]	0.5 (≈ 1.01 µM)	2 (≈ 4.05 µM)	0.5 (≈ 1.01 µM)	1 (≈ 2.03 µM)	0.5 (≈ 1.01 µM)	1 (≈ 2.03 µM)	1 (≈ 2.03 µM)	2 (≈ 4.05 µM)	IC50 [1]: 1600 nM; IC50 ([2]; Figure 6, read-out: IC50 CYP2E1 (value in plot key)): 184 nM; IC50 ([2]; bound given in text, read-out: IC50 CYP2E1): < 250 nM; MRSA inoculum in the thigh muscle ([3]; after treatment for 24 h): 7.655 ± 0.067 log10 CFU/g; reduction of bacterial load in the thigh muscle ([3]; versus untreated group): 0.771 log10 CFU/g; IC50 at 24 h [4]: ≥ 20 µg/mL; cytotoxicity on RAW264.7 cells [5]: No significant cytotoxicity; MIC ([6]; Staphylococcus aureus, read-out: MICs of resistant clones): 2 to 8 µg/mL (≈ 4.05 to 16.2 µM); fold increase in MICs ([6]; after 13 passages): ~32 fold; passages after which resistance developed (≥ 4-fold MIC increase) ([6]; four S. aureus strains): 3 passages; MPC [7]: 1 µg/mL; MPC [8]: 1 µg/mL; MPC [9]: 1 µg/mL; MPC [10]: 2 µg/mL
C=C[C@]1(C)C[C@@H](OC(=O)CSC(C)(C)CNC(=O)[C@H](N)C(C)C)[C@]2(C)[C@H](C)CC[C@]3(CCC(=O)[C@H]32)[C@@H](C)[C@@H]1O [valnemulin]	0.125 (≈ 0.221 µM)	0.25 (≈ 0.443 µM)	0.125 (≈ 0.221 µM)	0.125 (≈ 0.221 µM)	0.125 (≈ 0.221 µM)	0.125 (≈ 0.221 µM)	0.125 (≈ 0.221 µM)	0.125 (≈ 0.221 µM)	
